“And” between values parts separate entries of the source, which are not always exact repeats. Identical values can stand only once.
assay: logP by HPLC on reversed-phase columns (C18), EEC Directive 79/831 Annex V.A8; assay type: physicochemical; conditions: HPLC reversed-phase C18, acidic range pH 2.7; Preparation Examples (intermediates)
Method: The logP values reported in the table above and in the Preparation Examples were determined in accordance with EEC Directive 79/831 Annex V.A8 by HPLC (High Performance Liquid Chromatography) on reversed-phase columns (C18), with the following methods:
The LC-MS determination in the acidic range is carried out at pH 2.7 using the mobile phases 0.1% aqueous formic acid and acetonitrile (contains 0.1% formic acid), linear gradient from 10% acetonitrile to 95% acetonitrile
Calibration was carried out using unbranched alkan-2-ones (having from 3 to 16 carbon atoms) with known logP values (the logP values were determined by the retention times using linear interpolation between two successive alkanones).

**Q.** With `COC(=O)c1cc(C#Cc2ccc(OC(F)(F)F)cc2)nn1-c1ncccc1Cl` [Example No. VII, methyl 1-(3-chloropyridin-2-yl)-3-{[4-(trifluoromethoxy)phenyl]ethinyl}-1H-pyrazole-5-carboxylate] as the compound, how does the logP read?
**A.** Its logP is 4.46.

**Q.** For “Methyl 1-(3-chloropyridin-2-yl)-3-{1-hydroxy-2-[5-(trifluoromethyl)-2H-tetrazol-2-yl]ethyl}-1H-pyrazole-5-carboxylate/methyl 1-(3-chloropyridin-2-yl)-3-{1-hydroxy-2-[5-(trifluoromethyl)-1H-tetrazol-1-yl]ethyl}-1H-pyrazole-5-carboxylate [Example No. XII]”, which logP is on record?
**A.** The logP was 2.64 and 2.68.

**Q.** For “1-(3-Chloropyridin-2-yl)-3-{(E)-2-[5-(trifluoromethyl)-2H-tetrazol-2-yl]vinyl}-1H-pyrazole-5-carboxylic acid/1-(3-chloropyridin-2-yl)-3-{(E)-2-[5-(trifluoromethyl)-1H-tetrazol-1-yl]vinyl}-1H-pyrazole-5-carboxylic acid [Example No. XIV]”, which logP is on record?
**A.** Its logP is 2.79 and 2.86.

**Q.** With “Methyl 1-(3-chloropyridin-2-yl)-3-{(E)-2-[5-(trifluoromethyl)-2H-tetrazol-2-yl]vinyl}-1H-pyrazole-5-carboxylate/methyl 1-(3-chloropyridin-2-yl)-3-{(E)-2-[5-(trifluoromethyl)-1H-tetrazol-1-yl]vinyl}-1H-pyrazole-5-carboxylate [Example No. XIII]” as the compound, how does the logP read?
**A.** The logP was 3.37 and 3.49.

**Q.** Which logP does the source give for `O=C(Nc1ccc(C(F)(F)F)cc1)c1cc(C(=O)O)n(-c2ncccc2Cl)n1` [Example No. III-8] here?
**A.** Its logP is 2.67.

same assay, conditions: pH 2.7, log P

**Q.** With `CNC(=O)c1cc(C#N)cc(C)c1NC(=O)c1cc(C#Cc2ccc(OC)cc2)nn1-c1ncccc1Cl` [Example 8] as the compound, how does the chromatographic logP read?
**A.** The chromatographic logP was 3.11.

**Q.** Which chromatographic logP does the source give for `Cc1cc(Cl)cc(C(N)=O)c1NC(=O)c1cc(C(=O)C(=O)c2ccc(Cl)cc2Cl)nn1-c1ncccc1Cl` [Example 31] here?
**A.** Its chromatographic logP is 3.51.

**Q.** For `Cc1cc(Cl)cc(C(=O)NC(C)C)c1NC(=O)c1cc(CNS(=O)(=O)Cc2ccccc2C(F)(F)F)nn1-c1ncccc1Cl` [Example 49], which chromatographic logP is on record?
**A.** The chromatographic logP was 2.62.

**Q.** With `Cc1cc(Cl)cc(C(=O)NC(C)C)c1NC(=O)c1cc(CNS(=O)(=O)c2cccc(Cl)c2)nn1-c1ncccc1Cl` [Example 43] as the compound, how does the chromatographic logP read?
**A.** Its chromatographic logP is 3.25.

**Q.** Which chromatographic logP does the source give for `Cc1cc(Cl)cc(C(=O)NC2CC2)c1NC(=O)c1cc(CNS(=O)(=O)c2ccccc2Cl)nn1-c1ncccc1Cl` [Example 39] here?
**A.** Its chromatographic logP is 2.8.

**Q.** Which chromatographic logP does the source give for `Cc1cc(Cl)cc(C(=O)NC(C)C)c1NC(=O)c1cc(CNS(=O)(=O)Cc2ccc(C(F)(F)F)cc2)nn1-c1ncccc1Cl` [Example 50] here?
**A.** The chromatographic logP was 2.28.

**Q.** For `CNC(=O)c1cc(Cl)cc(C)c1NC(=O)c1cc(CNS(=O)(=O)c2ccccc2Cl)nn1-c1ncccc1Cl` [Example 37], which chromatographic logP is on record?
**A.** The chromatographic logP was 2.58.

**Q.** With `Cc1cc(C#N)cc(C(=O)NC(C)C)c1NC(=O)c1cc(Nc2ccc(C(F)(F)F)c(C(F)(F)F)c2)nn1-c1ncccc1Cl` [Example 72] as the compound, how does the chromatographic logP read?
**A.** The chromatographic logP was 3.91.

**Q.** For `Cc1cc(Cl)cc(C(=O)NC(C)C)c1NC(=O)c1cc(CNS(=O)(=O)c2ccc(Cl)cc2)nn1-c1ncccc1Cl` [Example 47], which chromatographic logP is on record?
**A.** The chromatographic logP was 3.25.

**Q.** With `CNC(=O)c1cc(Br)cc(C)c1NC(=O)c1cc(C(=O)Nc2ccc(C(F)(F)F)cc2)nn1-c1ncccc1Cl` [Example 2] as the compound, how does the chromatographic logP read?
**A.** The chromatographic logP was 3.53.

**Q.** Which chromatographic logP does the source give for `Cc1cc(C#N)cc(C(=O)NC(C)(C)C)c1NC(=O)c1cc(N2CCN(Cc3ccc(Cl)nc3)C2=O)nn1-c1ncccc1Cl` [Example 30] here?
**A.** The chromatographic logP was 3.02.

**Q.** Which chromatographic logP does the source give for `CNC(=O)c1cc(Cl)cc(C)c1NC(=O)c1cc(C(=O)Nc2ccc(C(F)(F)F)cc2)nn1-c1ncccc1Cl` [Example 5] here?
**A.** Its chromatographic logP is 3.46.

**Q.** With `Cc1cc(C#N)cc(C(=O)NC(C)C)c1NC(=O)c1cc(Nc2cccc(C(F)(F)F)c2)nn1-c1ncccc1Cl` [Example 75] as the compound, how does the chromatographic logP read?
**A.** The chromatographic logP was 3.66.

same assay, conditions: reversed-phase HPLC column (C18), pH 2.7, HPLC reversed-phase C18, acidic range pH 2.7, 0.1% aqueous formic acid/acetonitrile; table of compounds of formula (I); read-out: log P

**Q.** With `Cc1cc(Cl)cc(C(=O)NC(C)C)c1NC(=O)c1cc(CNS(=O)(=O)c2cc(C(F)(F)F)ccc2C(F)(F)F)nn1-c1ncccc1Cl` [Example 40] as the compound, how does the chromatographic logP read?
**A.** Its chromatographic logP is 3.84.

**Q.** With `Cc1cc(Cl)cc(C(=O)NC(C)C)c1NC(=O)c1cc(CN(Cc2cc(C(F)(F)F)cc(C(F)(F)F)c2)S(C)(=O)=O)nn1-c1ncccc1Cl` [Example 57] as the compound, how does the chromatographic logP read?
**A.** The chromatographic logP was 4.26.

**Q.** Which chromatographic logP does the source give for `Cc1cc(Cl)cc(C(=O)NC(C)C)c1NC(=O)c1cc(CNS(=O)(=O)Cc2cc(C(F)(F)F)cc(C(F)(F)F)c2)nn1-c1ncccc1Cl` [Example 53] here?
**A.** Its chromatographic logP is 3.95.

**Q.** Which chromatographic logP does the source give for `Cc1cc(Cl)cc(C(=O)NC(C)C)c1NC(=O)c1cc(CNS(=O)(=O)c2c(C(F)(F)F)cccc2C(F)(F)F)nn1-c1ncccc1Cl` [Example 41] here?
**A.** Its chromatographic logP is 3.63.

**Q.** For `Cc1cc(C#N)cc(C(=O)NC(C)(C)C)c1NC(=O)c1cc(N2CCN(c3cc(C(F)(F)F)cc(C(F)(F)F)c3)C2=O)nn1-c1ncccc1Cl` [Example 25], which chromatographic logP is on record?
**A.** The chromatographic logP was 4.84.

**Q.** For `Cc1cc(Cl)cc(C(=O)NC(C)C)c1NC(=O)c1cc(CNS(=O)(=O)c2cc(C(F)(F)F)cc(C(F)(F)F)c2)nn1-c1ncccc1Cl` [Example 35], which chromatographic logP is on record?
**A.** Its chromatographic logP is 4.1.

**Q.** Which chromatographic logP does the source give for `Cc1cc(Cl)cc(C(=O)NC(C)C)c1NC(=O)c1cc(N2CCN(c3cc(C(F)(F)F)cc(C(F)(F)F)c3)C2=O)nn1-c1ncccc1Cl` [Example 26] here?
**A.** The chromatographic logP was 4.97.

**Q.** With `Cc1cc(Cl)cc(C(=O)NC(C)C)c1NC(=O)c1cc(CNS(=O)(=O)c2ccc(C(F)(F)F)cc2C(F)(F)F)nn1-c1ncccc1Cl` [Example 42] as the compound, how does the chromatographic logP read?
**A.** The chromatographic logP was 3.94.

**Q.** For `Cc1cc(Cl)cc(C(=O)NC(C)C)c1NC(=O)c1cc(CNS(=O)(=O)c2ccc(C(F)(F)F)c(C(F)(F)F)c2)nn1-c1ncccc1Cl` [Example 54], which chromatographic logP is on record?
**A.** The chromatographic logP was 4.

**Q.** With `Cc1cc(Cl)cc(C(=O)NC(C)C2CC2)c1NC(=O)c1cc(CNS(=O)(=O)c2cc(C(F)(F)F)cc(C(F)(F)F)c2)nn1-c1ncccc1Cl` (centres unmarked) [Example 34] as the compound, how does the chromatographic logP read?
**A.** The chromatographic logP was 4.38.

**Q.** Which chromatographic logP does the source give for `Cc1cc(C#N)cc(C(=O)NC2CC2)c1NC(=O)c1cc(CN(Cc2cc(C(F)(F)F)cc(C(F)(F)F)c2)S(C)(=O)=O)nn1-c1ncccc1Cl` [Example 62] here?
**A.** The chromatographic logP was 3.64.

**Q.** With `Cc1cc(Cl)cc(C(=O)NC(C)C)c1NC(=O)c1cc(C(=O)Nc2cc(C(F)(F)F)cc(C(F)(F)F)c2)nn1-c1ncccc1Cl` [Example 7] as the compound, how does the chromatographic logP read?
**A.** Its chromatographic logP is 4.62.

same assay, conditions: reversed-phase HPLC column (C18), pH 2.7, HPLC reversed-phase C18, acidic range pH 2.7; Preparation Examples (intermediates); read-out: logP

**Q.** With `O=[N+]([O-])c1ccn(-c2ncccc2Cl)n1` [Example No. XVI, 3-Chloro-2-(3-nitro-1H-pyrazol-1-yl)pyridine] as the compound, how does the chromatographic logP read?
**A.** The chromatographic logP was 1.83.

**Q.** Which chromatographic logP does the source give for `CCOC(=O)c1cc(C(=O)Cn2nnc(C(F)(F)F)n2)nn1-c1ncccc1Cl` [Example No. IX, ethyl 1-(3-chloropyridin-2-yl)-3-{[5-(trifluoromethyl)-2H-tetrazol-2-yl]acetyl}-1H-pyrazole-5-carboxylate] here?
**A.** Its chromatographic logP is 3.5.

**Q.** Which chromatographic logP does the source give for `O=C(O)c1cc(Nc2ccc(C(F)(F)F)cn2)nn1-c1ncccc1Cl` [Example No. III-10, 1-(3-Chloropyridin-2-yl)-3-{[5-(trifluoromethyl)pyridin-2-yl]amino}-1H-pyrazole-5-carboxylic acid] here?
**A.** Its chromatographic logP is 2.79.

**Q.** With `CCOC(=O)c1cc(C(=O)C(=O)c2ccc(Cl)cc2Cl)nn1-c1ncccc1Cl` [Example No. VIII, ethyl 1-(3-chloropyridin-2-yl)-3-[(2,4-dichlorophenyl)(oxo)acetyl]-1H-pyrazole-5-carboxylate] as the compound, how does the chromatographic logP read?
**A.** Its chromatographic logP is 4.29.

**Q.** Which chromatographic logP does the source give for `CCOC(=O)c1cc(C(=O)CBr)nn1-c1ncccc1Cl` [Example No. VIII-a, ethyl 3-(bromoacetyl)-1-(3-chloropyridin-2-yl)-1H-pyrazole-5-carboxylate] here?
**A.** Its chromatographic logP is 2.87.

**Q.** With `O=C(C(=O)c1ccc(Cl)cc1Cl)c1cc(C(=O)O)n(-c2ncccc2Cl)n1` [Example No. III-2, 1-(3-chloropyridin-2-yl)-3-[(2,4-dichlorophenyl)(oxo)acetyl]-1H-pyrazole-5-carboxylic acid] as the compound, how does the chromatographic logP read?
**A.** The chromatographic logP was 2.78.

**Q.** Which chromatographic logP does the source give for `O=C(O)c1cc([N+](=O)[O-])nn1-c1ncccc1Cl` [Example No. XVII, 1-(3-Chloropyridin-2-yl)-3-nitro-1H-pyrazole-5-carboxylic acid] here?
**A.** The chromatographic logP was 0.9.

**Q.** Which chromatographic logP does the source give for `COC(=O)c1cc([N+](=O)[O-])nn1-c1ncccc1Cl` [Example No. XVIII, Methyl 1-(3-chloropyridin-2-yl)-3-nitro-1H-pyrazole-5-carboxylate] here?
**A.** Its chromatographic logP is 2.18.

**Q.** Which chromatographic logP does the source give for `COC(=O)c1cc(N)nn1-c1ncccc1Cl` [Example No. XIX, Methyl 3-amino-1-(3-chloropyridin-2-yl)-1H-pyrazole-5-carboxylate] here?
**A.** Its chromatographic logP is 1.09.

**Q.** For `CCOC(=O)c1cc(C(C)=O)nn1-c1ncccc1Cl` [Example No. VII-a, ethyl 3-acetyl-1-(3-chloropyridin-2-yl)-1H-pyrazole-5-carboxylate], which chromatographic logP is on record?
**A.** The chromatographic logP was 2.31.

**Q.** Which chromatographic logP does the source give for `O=C(Cn1nnc(C(F)(F)F)n1)c1cc(C(=O)O)n(-c2ncccc2Cl)n1` [Example No. III-4, 1-(3-chloropyridin-2-yl)-3-{[5-(trifluoromethyl)-2H-tetrazol-2-yl]acetyl}-1H-pyrazole-5-carboxylic acid] here?
**A.** The chromatographic logP was 2.25.

**Q.** With `COC(=O)c1cc(C(=O)c2ccc(C(F)(F)F)nc2)nn1-c1ncccc1Cl` [Example No. VIII-c, methyl 1-(3-chloropyridin-2-yl)-3-{[6-(trifluoromethyl)pyridin-3-yl]carbonyl}-1H-pyrazole-5-carboxylate] as the compound, how does the chromatographic logP read?
**A.** Its chromatographic logP is 3.33.

**Q.** Which chromatographic logP does the source give for `COC(=O)c1cc(C2CO2)nn1-c1ncccc1Cl` (centres unmarked) [Example No. XI, Methyl 1-(3-chloropyridin-2-yl)-3-(oxiran-2-yl)-1H-pyrazole-5-carboxylate] here?
**A.** The chromatographic logP was 1.67.

**Q.** For `CN(Cc1cc(C(=O)O)n(-c2ncccc2Cl)n1)S(=O)(=O)Cc1cc(C(F)(F)F)cc(C(F)(F)F)c1` [Example No. III-1, 3-{[{[3,5-bis(trifluoromethyl)benzyl]sulphonyl}(methyl)amino]methyl}-1-(3-chloropyridin-2-yl)-1H-pyrazole-5-carboxylic acid], which chromatographic logP is on record?
**A.** The chromatographic logP was 3.07.

Source: patent publication US8791139B2, “Anthranilic diamide derivatives” (Bayer Cropscience AG, priority 2010, dated 2014)
